# Like-named read-outs stand apart in the source and are kept apart here.
# Experiments:
# [1] = molecular target: T1, hD2R (Homo sapiens, UniProt P14416); test: biochemical; format: binding; settings: for inhibition at 10 µM: read-out: % inhibition at 10 μmol/L hD2
# [2] = molecular target: hD3R (Homo sapiens, UniProt P35462); test: biochemical; format: binding; settings: for Ki: Ki hD3, three experiments, means ± SEM
# [3] = molecular target: T1, hD2R; format: cell-based
# [4] = read-out: % inhibition at 10 μmol/L hD3, 10 μmol/L test compound
# T1 sequence (P14416 whole entry): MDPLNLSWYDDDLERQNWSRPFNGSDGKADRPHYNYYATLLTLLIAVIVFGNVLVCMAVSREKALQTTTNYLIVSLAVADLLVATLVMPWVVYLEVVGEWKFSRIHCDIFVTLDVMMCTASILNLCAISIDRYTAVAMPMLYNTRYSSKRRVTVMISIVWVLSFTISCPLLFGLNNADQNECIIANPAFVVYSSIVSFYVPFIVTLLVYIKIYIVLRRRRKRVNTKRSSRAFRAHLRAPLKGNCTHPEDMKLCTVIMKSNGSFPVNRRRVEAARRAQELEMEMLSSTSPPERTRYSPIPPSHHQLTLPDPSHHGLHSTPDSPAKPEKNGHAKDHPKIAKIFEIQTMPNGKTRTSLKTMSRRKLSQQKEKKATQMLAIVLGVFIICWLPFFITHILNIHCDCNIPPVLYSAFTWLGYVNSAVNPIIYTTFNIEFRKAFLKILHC
# Sequence of hD3R (P35462 whole entry): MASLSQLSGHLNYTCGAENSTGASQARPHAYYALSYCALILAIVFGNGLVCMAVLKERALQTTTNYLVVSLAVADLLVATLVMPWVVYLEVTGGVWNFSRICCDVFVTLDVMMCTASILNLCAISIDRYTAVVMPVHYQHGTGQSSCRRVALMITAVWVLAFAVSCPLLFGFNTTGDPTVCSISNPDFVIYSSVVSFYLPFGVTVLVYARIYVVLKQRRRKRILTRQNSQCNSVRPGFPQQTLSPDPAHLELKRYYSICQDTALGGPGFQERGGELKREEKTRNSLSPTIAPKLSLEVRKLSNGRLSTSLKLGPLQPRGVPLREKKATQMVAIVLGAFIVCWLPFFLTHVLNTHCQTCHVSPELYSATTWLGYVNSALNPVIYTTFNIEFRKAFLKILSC
SMILES,Ki [1] [µM],inhibition at 10 µM [1] [%],Ki [2] [nM],"inhibition at 10 µM [2, 4] [%]",inhibition at 10 µM ([2]; read-out: % inhibition at 10 μmol/L hD3) [%],improvement of D3R binding affinity versus the phenyl group (23g) [2],"effect on ERK1/2 phosphorylation mediated by hD2R, compound alone (agonist mode) [3]"
CC(C)n1c2ccccc2c2cc(CNCCCn3ccnc3)ccc21 [3c],> 10,1.7 ± 9.2,665 ± 13.5,83.8 ± 10.2,,,
CCn1c2ccccc2c2cc(CNCCCCn3ccnc3)ccc21 [17a],> 10,,994 ± 36.6,75.6 ± 3.5,,,
CCn1c2ccccc2c2cc(CNCCCn3cnc4ccccc43)ccc21 [17d],> 10,71.8 ± 3.6,1100 ± 115,,75 ± 14.5,,
CCn1c2ccccc2c2cc(CNCCCn3cnc4cncnc43)ccc21 [17e],,10.6 ± 7.4,,,,,
CCn1c2ccccc2c2cc(CNCCCn3cnc4c(Cl)ncnc43)ccc21 [17f],,12.8 ± 7.7,,,,,
CCn1c2ccccc2c2cc(CNCCCNC(=O)N(C)C)ccc21 [22a],,,,42.1 ± 2.2,,,
CCn1c2ccccc2c2cc(CNCCCNC(=O)c3cc4ccccc4[nH]3)ccc21 [22b],,8.1 ± 3.9,,21.3 ± 8.5,,,
CCn1c2ccccc2c2cc(CNCCCNC(=O)c3nc4ccccc4[nH]3)ccc21 [22c],,22.4 ± 5.7,,32.7 ± 11.4,,,
CCn1c2ccccc2c2cc(CNCCCCNC(=O)c3cc4ccccc4[nH]3)ccc21 [23a],> 10,30 ± 14.1,62.6 ± 8,87 ± 2.5,,,
CCn1c2ccccc2c2cc(CNCCCCNC(=O)c3nc4ccccc4[nH]3)ccc21 [23b],> 10,,578 ± 85,86.7 ± 1.9,,,
CCn1c2ccccc2c2cc(CNCCCCNC(=O)c3cc4ccccn4n3)ccc21 [23c],> 10,,45.7 ± 2.2,98.4 ± 2,,,
CCn1c2ccccc2c2cc(CNCCCCNC(=O)c3ccc4[nH]cnc4c3)ccc21 [23d],> 10,2.7 ± 4.3,125 ± 17.6,98.5 ± 2.3,,,
CCn1c2ccccc2c2cc(CNCCCCNC(=O)c3ccc4[nH]c(=O)[nH]c4c3)ccc21 [23e],> 10,1.9 ± 10.7,99.3 ± 31.9,99.2 ± 0.5,,,
CCn1c2ccccc2c2cc(CNCCCCNC(=O)c3ccc4[nH]c(=O)oc4c3)ccc21 [23f],> 10,5.5 ± 21.5,95.1 ± 8.9,97.6 ± 0.3,,,
CCn1c2ccccc2c2cc(CNCCCCNC(=O)c3ccc(-c4ccccc4)cc3)ccc21 [23g],> 10,,206 ± 2.9,102 ± 1.2,,,
CCn1c2ccccc2c2cc(CNCCCCNC(=O)c3ccc(-c4ccc(C(C)=O)cc4)cc3)ccc21 [23h],> 10,5.2 ± 7.6,24.2 ± 4.4,105 ± 1.5,,,
CCn1c2ccccc2c2cc(CNCCCCNC(=O)c3ccc(-c4ccccn4)cc3)ccc21 [23i],> 10,6.5 ± 2.3,21.3 ± 4.3,101 ± 0.8,,approximately 10 fold,
CCn1c2ccccc2c2cc(CNCCCCNC(=O)c3ccc4[nH]c5ccccc5c4c3)ccc21 [23k],> 10,10.6 ± 3.3,145 ± 11.9,98.1 ± 0.8,,,
CCn1c2ccccc2c2cc(CNCCCCNC(=O)c3cnc4ccccc4c3)ccc21 [23l],> 10,9.6 ± 0.1,85.7 ± 2.9,100 ± 1.3,,,
CCn1c2ccccc2c2cc(CNCCCCNC(=O)c3ccnc4ccccc34)ccc21 [23m],,,,63.1 ± 0.2,,,
CCN(CCCCNC(=O)c1cc2ccccc2[nH]1)Cc1ccc2c(c1)c1ccccc1n2CC [31a],0.333 ± 0.0036,88.1 ± 1.5,134 ± 9.6,96.2 ± 0.2,,,
CCN(CCCCNC(=O)c1ccc(-c2cccnc2)cc1)Cc1ccc2c(c1)c1ccccc1n2CC [31b],> 10,36.9 ± 2.1,422 ± 18.3,78.5 ± 0.3,,,

SMILES,Ki [1] [µM],inhibition at 10 µM [1] [%],Ki [2] [nM],"inhibition at 10 µM [2, 4] [%]",inhibition at 10 µM ([2]; read-out: % inhibition at 10 μmol/L hD3) [%],improvement of D3R binding affinity versus the phenyl group (23g) [2],"effect on ERK1/2 phosphorylation mediated by hD2R, compound alone (agonist mode) [3]"
CCCN(CCCCNC(=O)c1cc2ccccc2[nH]1)Cc1ccc2c(c1)c1ccccc1n2CC [31c],0.301 ± 0.0119,89.8 ± 2.9,448 ± 26.1,98.6 ± 0.6,,,
CCCN(CCCCNC(=O)c1ccc(-c2cccnc2)cc1)Cc1ccc2c(c1)c1ccccc1n2CC [31d],> 10,26.8 ± 0.9,994 ± 45.3,81.3 ± 0.6,,,
CCCN(CCCCNC(=O)c1cc2ccccn2n1)Cc1ccc2c(c1)c1ccccc1n2CC [31e],> 10,18.6 ± 2.5,478 ± 29.4,74.8 ± 1.5,,,
Cn1c2c(c3ccccc31)CN(CCCCNC(=O)c1cn3nc(Cl)ccc3n1)CC2 [36c],,21.1 ± 9,,66.3 ± 9.1,,,
Cn1c2c(c3ccccc31)CN(CCCCNC(=O)c1cnc3ccccc3c1)CC2 [36d],,15.6 ± 12.9,,42.5 ± 6.8,,,
Cn1c2c(c3ccccc31)CN(CCCCNC(=O)c1ccnc3ccccc13)CC2 [36e],,-2 ± 17.4,,68.1 ± 1.9,,,
Cn1c2c(c3ccccc31)CN(CCCCNC(=O)c1ccc(-c3cccnc3)cc1)CC2 [36g],> 10,29.2 ± 5.8,29 ± 3.3,83.8 ± 12.7,,,
Cn1c2c(c3ccccc31)CN(CCCCNC(=O)c1ccc3[nH]c4ccccc4c3c1)CC2 [36h],,74.4 ± 3.3,19.6 ± 7.3,95.5 ± 0.7,,,
Cn1c2c(c3ccccc31)CN(CCCCNC(=O)c1ccc3[nH]c(=O)[nH]c3c1)CC2 [36i],> 10,38.9 ± 3.8,3.7 ± 0.6,87.5 ± 6.1,,,
Cn1c2c(c3ccccc31)CN(CCCCNC(=O)c1ccc3[nH]cnc3c1)CC2 [36j],> 10,27.7 ± 1.4,14.2 ± 0.7,74.4 ± 8.2,,,
CCn1c2c(c3ccccc31)CN(CCCCNC(=O)c1cc3ccccc3[nH]1)CC2 [36k],> 10,13.2 ± 7.3,15.5 ± 1.8,106 ± 2.2,,,
Cn1c2c(c3ccccc31)CCN(CCCCNC(=O)c1cc3ccccc3[nH]1)C2 [42a],> 10,9.1 ± 16.4,6.8 ± 0.8,106 ± 1.3,,,
CCn1c2c(c3ccccc31)CCN(CCCCNC(=O)c1cc3ccccc3[nH]1)C2 [42b],> 10,17.5 ± 1.5,12.9 ± 2.1,106 ± 3.6,,,
Cn1c2c(c3ccccc31)CCN(CCCCNC(=O)c1ccc3nc[nH]c3c1)C2 [42e],,49.7 ± 1.2,203,81.5 ± 0.6,,,
CCn1c2c(c3ccccc31)CCN(CCCCNC(=O)c1ccc3nc[nH]c3c1)C2 [42f],,54.1 ± 0.1,300,80.6 ± 1.1,,,
Cn1c2c(c3ccccc31)CCN(CCCCNC(=O)c1ccc(-c3cccnc3)cc1)C2 [42g],,37.8 ± 1,,69.6 ± 0.8,,,
CCn1c2c(c3ccccc31)CCN(CCCCNC(=O)c1ccc(-c3cccnc3)cc1)C2 [42h],,28.9 ± 0.8,,31.3 ± 0.6,,,
Cn1c2c(c3ccccc31)CCN(CCCCNC(=O)c1ccc3[nH]c(=O)[nH]c3c1)C2 [42i],,37.6 ± 0.2,112,85.2 ± 0.5,,,
CCn1c2c(c3ccccc31)CCN(CCCCNC(=O)c1ccc3[nH]c(=O)[nH]c3c1)C2 [42j],,48.8 ± 0.7,149,85.9 ± 0.07,,,
c1ccc2c(c1)[nH]c1ccc(CNCCCn3ccnc3)cc12 [compound 8],,33.2 ± 17.5,,54.2 ± 7.7,,,
"NCCc1ccc(O)c(O)c1 [dopamine, reference compound]",,,,,,,significantly increased

# — article PMC10638516 (Acta Pharmaceutica Sinica. B, 2023)
